pEC50: −log10 of the molar value.

Experiment [1] addresses T1, full length human TREX1 (Homo sapiens, UniProt Q9NSU2).
T1 construct: N-terminally His-Tev tagged full length human TREX1; His-Tev (His tag with TEV protease site) (N); made in house; host or cells: E. coli
T1 sequence (Q9NSU2 1-314): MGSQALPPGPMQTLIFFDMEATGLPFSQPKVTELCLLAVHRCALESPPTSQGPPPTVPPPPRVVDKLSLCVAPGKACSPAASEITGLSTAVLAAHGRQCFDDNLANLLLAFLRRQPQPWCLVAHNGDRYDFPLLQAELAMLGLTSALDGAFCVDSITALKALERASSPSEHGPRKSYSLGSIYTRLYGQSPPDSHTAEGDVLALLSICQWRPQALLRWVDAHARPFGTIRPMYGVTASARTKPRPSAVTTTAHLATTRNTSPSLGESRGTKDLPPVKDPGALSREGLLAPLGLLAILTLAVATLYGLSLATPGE
The experiment in a line: TREX1 Biochemical Assay (fluorescence assay, degradation of dsDNA substrate). The conditions noted are these: 150 pM TREX1, 60 nM dsDNA substrate, 25 minutes at room temperature; read-out: hTREX1 EC50. In short, it runs like this: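 E. coli-expressed His-Tev-tagged full-length TREX1 (150 pM) with 60 nM quenched-fluorophore dsDNA in Tris pH 7.4, 150 mM NaCl, 100 mM MgCl2, 1% DMSO, 25 min room temperature, 10-point dose-response. EDTA stop; fluorescence 615 nm (ex 570 nm); IC50 from four-parameter fit against pre-quenched and no-inhibitor controls.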

The target in experiment [2] is T2, human TREX2 (residues M44-A279) (Homo sapiens, UniProt Q9BQ50).
T2 construct: human TREX2 (residues M44-A279, expressed in E. coli); His-Tev (His tag with TEV protease site) (N); made in house; host or cells: E. coli
T2 sequence (Q9BQ50 44-279 isoform Q9BQ50-1): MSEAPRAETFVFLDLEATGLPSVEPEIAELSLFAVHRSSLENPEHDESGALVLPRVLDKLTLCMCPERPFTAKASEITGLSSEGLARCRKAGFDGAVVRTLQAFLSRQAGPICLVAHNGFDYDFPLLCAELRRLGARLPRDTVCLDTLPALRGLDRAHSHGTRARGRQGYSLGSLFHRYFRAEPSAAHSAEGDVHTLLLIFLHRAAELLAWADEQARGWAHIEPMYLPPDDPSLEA
The experiment in a line: TREX2 Biochemical Assay (fluorescence assay, degradation of dsDNA substrate). The conditions noted are these: 2.5 nM TREX2, 60 nM dsDNA substrate, 25 minutes at room temperature; read-out: hTREX2 EC50. In short, it runs like this:
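His-Tev-tagged human TREX2 (M44-A279, E. coli-expressed) at 2.5 nM final, with 60 nM TEX615/quencher-labelled dsDNA in pH 7.4 Tris buffer with MgCl2 and 1.0% DMSO, 10-point dose-response, 25 min at room temperature, then EDTA quench. Fluorescence read at 615 nm (ex 570 nm). IC50 from four-parameter fit against pre-quenched and no-inhibitor controls.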

The pEC50 is the negative decadic logarithm of the EC50, by convention in mol/L. Take `COC(=O)CC[C@@H](c1ccccc1Cl)N(Cc1cccnc1)C(=O)c1cc(F)cc(F)c1` [Compound 242]: the pEC50 in experiment [1] is greater than 7.00; in experiment [2] it was 4.00 to 5.00.
Consider `O=C1NCc2cc(CN(Cc3ccccc3Cl)C(=O)c3cc(F)cc(F)c3)cnc21` [Compound 182], for which the pEC50 in experiment [1] is 5.00 to 6.00; in experiment [2] it was 4.00 to 5.00.
`O=C(O)c1ccc(CN(Cc2cc(Cl)ccc2Cl)C(=O)c2cc(F)cc(F)c2)cn1` [Compound 187]: the pEC50 in experiment [1] was greater than 7.00; in experiment [2], 5.00 to 6.00.
`O=C(c1cccc(F)c1)N(Cc1cccnc1)Cc1cccc(Cl)c1Cl` [Compound 136]: the pEC50 is 6.00 to 7.00 in experiment [1] and 4.00 to 5.00 in experiment [2].
For `O=C(c1cc(F)cc(F)c1)N(Cc1cnccc1Cl)Cc1cnccc1Cl` [Compound 176] the same measures were 6.00 to 7.00 and 5.00 to 6.00.
As for `N#CCC[C@H](c1ccccc1Cl)N(Cc1cccnc1)C(=O)c1cc(F)cc(F)c1` [Compound 178], the values for the pEC50 in experiment [1] and in experiment [2] were 5.00 to 6.00 and 4.00 to 5.00, respectively.
Consider `Cc1cc(-c2ccc(CN(Cc3ccccc3Cl)C(=O)c3cc(F)cc(F)c3)cn2)[nH]n1` [Compound 219], for which the pEC50 in experiment [1] was 5.00 to 6.00; in experiment [2], 4.00 to 5.00.
For the molecule `NC(=O)Cc1ccc(CN(Cc2ccc(Cl)cc2Cl)C(=O)c2cc(F)cc(F)c2)cn1` [Compound 217], the values for the pEC50 in experiment [1] and in experiment [2] were 6.00 to 7.00 and less than 4.00, respectively.
Taken in the same sequence, the figures for `COc1cccc(CN(Cc2ccc(NC(C)=O)nc2)C(=O)c2cccc(F)c2)c1Cl` [Compound 213, N-((6-acetamidopyridin-3-yl)methyl)-N-(2-chloro-3-methoxybenzyl)-3-fluorobenzamide] were less than 5.00 and less than 4.00.
With `O=C(c1ccc(F)c(F)c1F)N(Cc1cccnc1)Cc1ccc(Cl)cc1Cl` [Compound 123], the values for the pEC50 in experiment [1] and in experiment [2] were 5.00 to 6.00 and less than 4.00, respectively.
For `O=C(c1cc(F)cc(F)c1)N(Cc1ccc(-n2cccn2)nc1)Cc1ccc(Cl)cc1Cl` [Compound 175] the same measures were 6.00 to 7.00 and less than 4.00.
Regarding `O=C(c1cccc(F)c1F)N(Cc1cccnc1)Cc1ccc(Cl)cc1Cl` [Compound 124], the values for the pEC50 in experiment [1] and in experiment [2] were 5.00 to 6.00 and less than 4.00, respectively.
With `CC[C@@H](c1cccc(OC)c1Cl)N(Cc1cnc(C(=O)O)c(N)c1)C(=O)c1cc(F)cc(F)c1` [Compound 252], the results for the pEC50 in experiment [1] and in experiment [2] were greater than 7.00 and 4.00 to 5.00, respectively.
Taken in the same sequence, the figures for `O=C(c1ccc(-c2ccccc2)cc1)N(Cc1cccnc1)Cc1cc(Cl)cc(Cl)c1` [Compound 58] were less than 5.00 and less than 4.00.
For the molecule `COc1cc(C(=O)N(Cc2cccnc2)Cc2ccc(Cl)cc2Cl)cc(Cl)c1O` [Compound 22], the pEC50 in experiment [1] is less than 5.00; in experiment [2], less than 4.00.
Take `O=C(c1cccc(F)c1)N(Cc1ccncc1)Cc1ccc(Cl)cc1Cl` [Compound 97]: the results for the negative logarithm of the EC50 (pEC50) in experiment [1] and in experiment [2] were less than 5.00 and less than 4.00, respectively.
Consider `O=C(C1CCOCC1)N(Cc1cccnc1)Cc1ccc(Cl)cc1Cl` [Compound 89], for which the pEC50 was less than 5.00 in experiment [1] and less than 4.00 in experiment [2].
For the molecule `Cn1cc(CN(Cc2ccc(Cl)cc2Cl)C(=O)c2cccc(F)c2)cn1` [Compound 112], the pEC50 is less than 5.00 in experiment [1] and less than 4.00 in experiment [2].
Taken in the same sequence, the figures for `O=C(c1ccc(Oc2ccc(Cl)cc2)cc1)N(Cc1cccnc1)Cc1cc(Cl)cc(Cl)c1` [Compound 59] were less than 5.00 and less than 4.00.
For `O=C(c1cc(F)cc(F)c1)N(Cc1ccc(-c2nnn[nH]2)nc1)Cc1ccccc1Cl` [Compound 169], the pEC50 in experiment [1] is 6.00 to 7.00; in experiment [2], 4.00 to 5.00.
As for `O=C(c1cc(F)cc(F)c1)N(Cc1ccc(-c2cnn[nH]2)nc1)Cc1ccccc1Cl` [Compound 171], the pEC50 in experiment [1] is 6.00 to 7.00; in experiment [2], 4.00 to 5.00.
In the case of `O=C(O)c1ncc(CN(Cc2cccc(Cl)c2Cl)C(=O)c2cc(F)cc(F)c2)cc1Cl` [Compound 204], the pEC50 in experiment [1] was 6.00 to 7.00; in experiment [2], 5.00 to 6.00.
For `Cc1cc(C(=O)O)ncc1CN(Cc1cccc(Cl)c1Cl)C(=O)c1cc(F)cc(F)c1` [Compound 205] the same measures were greater than 7.00 and greater than 6.00.
On to `CC[C@H](c1ccc(OC)c(OC)c1Cl)N(Cc1ccc(C(=O)O)nc1)C(=O)c1cc(F)cc(F)c1` [Compound 226], for which the pEC50 is greater than 7.00 in experiment [1] and 5.00 to 6.00 in experiment [2].
As to `Cc1ccccc1CN(Cc1ccc(C(=O)O)nc1)C(=O)c1cc(F)cc(F)c1` [Compound 193], the pEC50 in experiment [1] is 6.00 to 7.00; in experiment [2], 4.00 to 5.00.
With `CNC(=O)c1ccc(CN(Cc2ccc(Cl)cc2Cl)C(=O)c2cccc(F)c2)cn1` [Compound 144, 5-({N-[(2,4-dichlorophenyl)methyl]-1-(3-fluorophenyl)formamido}methyl)-N-methylpyridine-2-carboxamide], the pEC50 in experiment [1] is 5.00 to 6.00; in experiment [2], less than 4.00.
`O=C(c1cc(F)c(F)cc1F)N(Cc1cccnc1)Cc1ccc(Cl)cc1Cl` [Compound 120]: the pEC50 in experiment [1] is less than 5.00; in experiment [2], less than 4.00.
For `Cc1cc(C(=O)N(Cc2cccnc2)Cc2cc(Cl)cc(Cl)c2)cc(C)c1O` [Compound 69], the pEC50 in experiment [1] was less than 5.00; in experiment [2] it was less than 4.00.
On to `O=C(c1ccc(O)c(C(F)(F)F)c1)N(Cc1cccnc1)Cc1cc(Cl)cc(Cl)c1` [Compound 72], for which the pEC50 in experiment [1] was less than 5.00; in experiment [2] it was less than 4.00.
For `O=C(c1ccc(CO)cc1F)N(Cc1cccnc1)Cc1cc(Cl)cc(Cl)c1` [Compound 60] the same measures were less than 5.00 and less than 4.00.
Consider `COc1nccc(CN(Cc2ccc(C(=O)O)nc2)C(=O)c2cc(F)cc(F)c2)c1Cl` [Compound 188], for which the pEC50 in experiment [1] is greater than 7.00; in experiment [2], 5.00 to 6.00.
Turning to `CC[C@@H](c1cccc(Cl)c1OC)N(Cc1cnc(C(=O)O)c(N)c1)C(=O)c1cc(F)cc(F)c1` [Compound 250], the results for the pEC50 in experiment [1] and in experiment [2] were greater than 7.00 and 4.00 to 5.00, respectively.
As to `O=C(c1cc(F)cc(F)c1)N(Cc1ccc(-c2ccn[nH]2)nc1)Cc1ccccc1Cl` [Compound 170], the pEC50 in experiment [1] was greater than 7.00; in experiment [2], 4.00 to 5.00.
With `O=C(c1cccc(F)c1)N(Cc1ccc(Cl)cc1)Cc1cccnc1` [Compound 138, N-[(4-chlorophenyl)methyl]-3-fluoro-N-[(pyridin-3-yl)methyl]benzamide], the pEC50 in experiment [1] was less than 5.00; in experiment [2], less than 4.00.
Regarding `CC[C@@H](c1ccc(Cl)cc1Cl)N(Cc1cccnc1)C(=O)c1cccc(F)c1` (single isomer, unassigned) [Compound 158], the pEC50 is 5.00 to 6.00 in experiment [1] and 4.00 to 5.00 in experiment [2].
Turning to `O=C(c1ccccc1N1CCCCC1)N(Cc1cccnc1)Cc1cc(Cl)cc(Cl)c1` [Compound 46], the pEC50 was less than 5.00 in experiment [1] and less than 4.00 in experiment [2].
Consider `COC(=O)CC[C@H](c1ccccc1Cl)N(Cc1cccnc1)C(=O)c1cc(F)cc(F)c1` [Compound 241], for which the pEC50 in experiment [1] is 5.00 to 6.00; in experiment [2], 4.00 to 5.00.
Take `O=C(c1cccc(F)c1)N(Cc1cnccn1)Cc1ccc(Cl)cc1Cl` [Compound 111]: the pEC50 in experiment [1] was 5.00 to 6.00; in experiment [2], less than 4.00.
As to `O=C(c1cncnc1)N(Cc1cccnc1)Cc1ccc(Cl)cc1Cl` [Compound 100], the pEC50 was less than 5.00 in experiment [1] and less than 4.00 in experiment [2].
Regarding `O=C(c1ccc(Br)cc1)N(Cc1cccnc1)Cc1cc(Cl)cc(Cl)c1` [Compound 26], the pEC50 in experiment [1] is less than 5.00; in experiment [2], less than 4.00.
Taken in the same sequence, the figures for `O=C(c1cc(F)c(F)c(F)c1)N(Cc1cccnc1)Cc1ccc(Cl)cc1Cl` [Compound 119] were 6.00 to 7.00 and 4.00 to 5.00.
As for `N#Cc1ccccc1CN(Cc1ccc(C(=O)O)nc1)C(=O)c1cc(F)cc(F)c1` [Compound 192], the pEC50 in experiment [1] is less than 5.00; in experiment [2], less than 4.00.
Taken in the same sequence, the figures for `O=C(O)Cn1cc(CN(Cc2ccc(Cl)cc2Cl)C(=O)c2cc(F)cc(F)c2)cn1` [Compound 165, 2-(4-((N-(2,4-dichlorobenzyl)-3,5-difluorobenzamido)methyl)-1H-pyrazol-1-yl)acetic acid] were 5.00 to 6.00 and less than 4.00.
Take `O=C(c1cc(Br)c(O)c(Br)c1)N(Cc1cccnc1)Cc1ccc(Cl)cc1Cl` [Compound 40]: the pEC50 in experiment [1] is less than 5.00; in experiment [2], less than 4.00.

The record behind these values is patent publication US20230233541A1, “SUBSTITUTED BENZAMIDES AS MODULATORS OF TREX1” (Constellation Pharmaceuticals, Inc., priority 2020, published 2023).
